Source: US12084473B2, “β-D-2′-deoxy-2′-α-fluoro-2′-β-C-substituted-2-modified-N6-substituted purine nucleotides for HCV treatment” (Atea Pharmaceuticals, Inc., priority 2015, dated 2024)
Where two headings read alike, the source gives them in different places.

Columns and labels:
human DNA polymerase γ = molecular target: T1, human DNA polymerase γ (Homo sapiens, UniProt P54098); test: Human DNA Polymerase Assays; type: biochemical; conditions: at concentrations up to 100 μM
T1 construct: purchased CHIMERx
T1 sequence (P54098 1-1239): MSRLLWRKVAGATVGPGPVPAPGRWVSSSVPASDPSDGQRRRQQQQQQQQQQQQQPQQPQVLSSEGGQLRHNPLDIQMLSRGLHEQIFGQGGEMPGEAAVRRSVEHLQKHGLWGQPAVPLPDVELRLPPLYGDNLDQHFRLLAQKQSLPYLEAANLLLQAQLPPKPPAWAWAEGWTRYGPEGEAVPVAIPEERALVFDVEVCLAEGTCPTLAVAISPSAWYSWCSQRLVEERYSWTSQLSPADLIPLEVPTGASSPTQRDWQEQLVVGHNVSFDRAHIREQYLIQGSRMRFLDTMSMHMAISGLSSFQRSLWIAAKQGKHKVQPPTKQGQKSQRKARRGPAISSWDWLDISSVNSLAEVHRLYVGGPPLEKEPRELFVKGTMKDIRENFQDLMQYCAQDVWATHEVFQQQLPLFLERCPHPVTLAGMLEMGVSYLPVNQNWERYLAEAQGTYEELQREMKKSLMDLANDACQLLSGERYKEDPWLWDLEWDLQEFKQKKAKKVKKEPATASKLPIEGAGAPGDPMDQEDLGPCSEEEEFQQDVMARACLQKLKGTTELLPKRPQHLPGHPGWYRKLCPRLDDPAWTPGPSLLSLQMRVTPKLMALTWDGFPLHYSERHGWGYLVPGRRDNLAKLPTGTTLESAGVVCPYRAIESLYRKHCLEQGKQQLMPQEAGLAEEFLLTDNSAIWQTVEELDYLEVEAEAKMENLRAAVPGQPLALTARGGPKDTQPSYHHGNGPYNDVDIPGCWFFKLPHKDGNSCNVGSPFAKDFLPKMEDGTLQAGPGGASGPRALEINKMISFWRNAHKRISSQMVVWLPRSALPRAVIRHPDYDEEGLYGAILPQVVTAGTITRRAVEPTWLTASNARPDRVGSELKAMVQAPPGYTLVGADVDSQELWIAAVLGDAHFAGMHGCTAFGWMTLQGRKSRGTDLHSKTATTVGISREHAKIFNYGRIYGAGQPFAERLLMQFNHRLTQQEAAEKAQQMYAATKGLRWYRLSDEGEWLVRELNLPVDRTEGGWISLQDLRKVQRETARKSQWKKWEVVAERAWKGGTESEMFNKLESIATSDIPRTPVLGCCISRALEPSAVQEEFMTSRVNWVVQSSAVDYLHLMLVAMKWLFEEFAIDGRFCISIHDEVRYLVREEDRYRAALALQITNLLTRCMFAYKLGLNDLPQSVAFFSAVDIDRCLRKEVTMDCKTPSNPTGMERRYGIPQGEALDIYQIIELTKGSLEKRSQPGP
Description: Inhibition of human DNA polymerases α, β and γ (CHIMERx) was determined in triplicate in reaction mixtures of serially diluted TA, 0.05 mM dCTP, dTTP, and dATP, 10 μCi [^32P]-α-dGTP (800 Ci/mmol), 20 μg activated calf thymus DNA and additional reagents specific for each polymerase.

[1] = Human Bone Marrow Progenitor Cell Assay; type: cell-based; conditions: human, fresh human bone marrow progenitor cells; read-out: CC50 in human bone marrow stem cells
Description: Fresh human bone marrow progenitor cells (Invitrogen) suspended in either BFU-E or GM-CSF-specific culture medium were added, at 10^5 cells/well, to triplicate serial dilutions of TA in 6-well plates. After 14-day incubations, colony counts were used to determine CC50 values. BFU-E colonies were confirmed using the benzidene technique.

iPS Cardiomyocyte Assay = type: cell-based, human; conditions: human, iPS cardiomyocytes
Description: iPS Cardiomyocytes (Cellular Dynamics) were seeded in microliter plates at 1.5×10^4 cells per well. After 48-hr incubation, cells were washed and maintenance medium containing serially diluted TA was added in triplicate. After incubating for an additional 3 days, cell viability was measured by staining with XTT and CC50 values were calculated.

host cell lines = test: Toxicity in host cell lines; type: cell-based; conditions: at concentrations up to 100 μM
[2] = Stability in fresh human whole blood; type: in vitro ADME; conditions: 10 μM, up to 120 min, FIG. 5
Description: The stability of selected compounds in fresh human whole blood and in human liver S9 fraction was determined in incubations containing 10 μM test compound. After incubations of 0, 30, 60 min, and up to 120 min, aliquots were removed and immediately extracted with 3 volumes of ice-cold methanol/acetonitrile (1:1, v/v). Extracts were centrifuged and supernatants were analyzed by LC-MS/MS for concentrations of unchanged test compound and potential metabolites.

[3] = system: micro-patterned human hepatocyte co-cultures; test: Human Hepatocyte Co-Cultures (HepatoPac): cytotoxicity and hepatocyte health; type: cell-based; conditions: for IC50: Homo sapiens, Hepatocyte
Description: Cytotoxicity and hepatocyte health were assessed in triplicate by measuring ALT leakage, urea production, albumin secretion and cellular ATP contents in micro-patterned human hepatocyte co-cultures (HepatoPac®, Hepregen Corporation) prepared by seeding cryopreserved human hepatocytes (single donor) and 3T3 J2 mouse fibroblasts in microtiter plates according to procedures established by Hepregen. Culture media was replaced with fresh media containing TA, test article, (0, 1, 10 or 30 μM) every 2 or 3 days through day 16. […] Cellular ATP levels were measured on days 9 and 21. ATP signals in stromal-only control cultures (murine 3T3 fibroblasts) were subtracted from those of human HepatoPac co-cultures to obtain hepatocyte-specific effects. See, Table 4, 5 and 6 below.

For `CC(C)OC(=O)[C@H](C)N[P@](=O)(OCC1O[C@@H](n2cnc3c(N(C)C)nc(N)nc32)[C@](C)(F)[C@@H]1O)Oc1ccccc1` (stereo partly drawn) [Compound 25, isopropyl ((((S)-(2R,3R,4R,5R)-5-(2-amino-6-(dimethylamino)-9H-purin-9-yl)-4-fluoro-3-hydroxy-4-methyltetrahydrofuran-2-yl)methoxy)-phenoxy-phosphoryl)-L-alaninate], the “inhibition of human DNA polymerase γ” value (human DNA polymerase γ) was “No inhibition”, the CC50 at 14 day [1] was > 100 µM and the CC50 at 3 day (iPS Cardiomyocyte Assay) was > 100 µM. The “toxicity in all host cell lines” value (host cell lines) was “no toxicity”.

In the case of `CNc1nc(N)nc2c1ncn2[C@@H]1OC(CO[P@@](=O)(N[C@@H](C)C(=O)OC(C)C)Oc2ccccc2)[C@@H](O)[C@@]1(C)F` (stereo partly drawn) [Compound 5-2], the “stability in human blood” value [2] is reported as “excellent stability”, the IC50 ([3]; 48 h, Table 5, Day 2, read-out: Effect on Albumin Secretion, 50% Inhibitory Concentration (IC50)) is reported as > 30 µM and the IC50 ([3]; 48 h, Table 6, Day 2, read-out: Effect on Albumin Secretion, 50% Inhibitory Concentration (IC50)) is reported as > 30 µM. For the same molecule, the IC50 ([3]; 120 h, Table 5, Day 5, read-out: Effect on Albumin Secretion, 50% Inhibitory Concentration (IC50)) was > 30 µM, the IC50 ([3]; 120 h, Table 6, Day 5, read-out: Effect on Albumin Secretion, 50% Inhibitory Concentration (IC50)) was > 30 µM and the IC50 ([3]; 168 h, Table 5, Day 7, read-out: Effect on Albumin Secretion, 50% Inhibitory Concentration (IC50)) was > 30 µM. For the same molecule, the IC50 ([3]; 168 h, Table 6, Day 7, read-out: Effect on Albumin Secretion, 50% Inhibitory Concentration (IC50)) was > 30 µM, the IC50 ([3]; 216 h, Day 9, read-out: Effect on Cellular ATP Concentrations, 50% Inhibitory Concentration (IC50)) was > 30 µM and the IC50 ([3]; 216 h, Table 5, Day 9, read-out: Effect on Albumin Secretion, 50% Inhibitory Concentration (IC50)) was > 30 µM. The IC50 ([3]; 216 h, Table 6, Day 9, read-out: Effect on Albumin Secretion, 50% Inhibitory Concentration (IC50)) was > 30 µM, the IC50 ([3]; 288 h, Table 6, Day 12, read-out: Effect on Albumin Secretion, 50% Inhibitory Concentration (IC50)) was > 30 µM and the IC50 ([3]; 384 h, Table 6, Day 16, read-out: Effect on Albumin Secretion, 50% Inhibitory Concentration (IC50)) was 24.2 µM. For the same molecule, the IC50 ([3]; 504 h, Day 21, read-out: Effect on Cellular ATP Concentrations, 50% Inhibitory Concentration (IC50)) was 12.8 µM, the IC50 ([3]; 504 h, Table 6, Day 21, read-out: Effect on Albumin Secretion, 50% Inhibitory Concentration (IC50)) was 14.5 µM and the “signs of cytotoxicity by ALT leakage, albumin secretion, urea production and cellular ATP content” value ([3]; concentrations up to 30 μM, up to 12 days) was “no signs of cytotoxicity”. For the same molecule, the “cytotoxicity with extended exposure” value ([3]; up to 21 days of culture) was “minor indications of cytotoxicity”.

For `CC(C)OC(=O)[C@H](C)N[P@](=O)(OCC1O[C@@H](n2cnc3c(N(C)C4CC4)nc(N)nc32)[C@](C)(F)[C@@H]1O)Oc1ccccc1` (stereo partly drawn) [Compound 27, isopropyl ((((S)-(2R,3R,4R,5R)-5-(2-amino-6-(methylcyclopropanamino)-9H-purin-9-yl)-4-fluoro-3-hydroxy-4-methyltetrahydrofuran-2-yl)methoxy)-phenoxy-phosphoryl)-L-alaninate], the “inhibition of human DNA polymerase γ” value (human DNA polymerase γ) was “No inhibition”, the CC50 at 14 day [1] was > 100 µM and the CC50 at 3 day (iPS Cardiomyocyte Assay) was > 100 µM. For the same molecule, the “toxicity in all host cell lines” value (host cell lines) was “no toxicity”.
